Experimental data as given in paper PMC5352362, “Molecular and functional evaluation of a novel HIF inhibitor, benzopyranyl 1,2,3-triazole compound” (Oncotarget, 2016).

Tests used:
[1] = test system: HUVECs; test: Transwell cell migration assay, VEGF-induced; format: cell-based, human; conditions: VEGF 20 ng/mL, 24 h
Method: (§1) Figure 5 Compound 12 suppressed HIF-1α target gene expression, and confirmation of in vitro results via determination of effects on angiogenesis in vivo (A) A549 cells were treated with Compound 12 (at concentrations of 0 nM, 1 nM, 10 nM, and 100 nM) for 16 h. The mRNA levels of HIF-1α target genes were determined by semiquantitative RT-PCR. β-actin was used as an internal control. D. DMSO vehicle control. N, normoxia; H, hypoxia. (B) A549 cells were treated with serum-reduced culture media containing Compound 12 (at concentrations of 0 nM, 10 nM, and 100 nM) for 16 h. Media supernatant was collected, and secreted VEGF was determined by ELISA after removal of cellular debris. N, normoxia; H, hypoxia. **P < 0.01 versus hypoxia (H) DMSO (D)-treated control. (C) HUVECs were treated with Compound 12, at the indicated concentrations, in the presence of VEGF (20 ng/mL) for 24 h in 1% serum-containing media. […] Cells that migrated through the membrane (8 μm pore size) were stained with hematoxylin and eosin, pictured as shown in upper panel, and counted (graph). *P < 0.05, **P < 0.01 versus VEGF-treated control. […] (F) Compound 12 (0.1 μg and 1 μg dosages) and retinoic acid (RA, positive control) were applied to the ED 4.5 CAM for two days, neovessel formation from the large vessels was observed, and percentages of positive angiogenic eggs (from total eggs tested) were calculated. […]

[2] = test system: HUVECs; test: Matrigel tube formation assay, VEGF-induced; format: cell-based, human; conditions: VEGF 20 ng/mL, 24 h
[3] = biological target: HIF-1α (Homo sapiens, UniProt Q16665); test: Western blot of HIF-1α protein in hypoxic HEK-293 cells; format: cell-based; conditions: HEK293, 1 nM, hypoxia 16 h, read-out: downregulation of HIF-1α protein expression
Method: (B, C) After HEK-293 cells (B) and A549 cells (C) were treated with Compound 12 (at concentrations of 0 nM, 0.1 nM, 1 nM, 10 nM, 100 nM, and 1000 nM) under hypoxic conditions for 16 h, expression of HIF-1α was determined by western blot analysis and then graphed. (D, E) Half maximal inhibitory concentration (IC50) values were calculated using GraphPad Prism software, using the quantified HIF-1α levels determined in B and C.
HEK-293 cells and A549 cells were treated with Compound 12, at 0.1–1000 nM concentrations, under hypoxic conditions for 16 h.
Proteins extracted from cells using PRO-PREP (iNtRon Biotech, South Korea) were separated by SDS-PAGE and transferred to a nitrocellulose membrane (Whatman, Maidstone, UK). Membranes were blocked with 5% skim milk in Tris-buffered saline (TBS) containing 0.1% Tween-20 for 30 min at room temperature (RT). After blocking, membranes were incubated with specific primary antibodies overnight at 4°C, followed by incubation with horseradish peroxidase-conjugated mouse- or rabbit-IgG for 1 h at RT. Antibody binding was detected using an enhanced chemiluminescence (ECL) kit (BioRad, Hercules, CA) according to the manufacturer's instructions. […]

[4] = test system: secreted VEGF; test: VEGF ELISA of A549 culture media; format: cell-based, human; conditions: A549 cells, 10 and 100 nM, 16 h
Text: As HIF-1α regulates transcription of its target genes, which are involved in angiogenesis, glucose metabolism, and metastasis in tumor progression, we determined the effects of Compound 12 on HIF-1 target gene expression at the mRNA level by semiquantitative RT-PCR. […] Thus, we checked secreted VEGF protein levels in culture media via ELISA.
as §1, with “(B) A549 cells were treated with serum-reduced culture media containing Compound 12 (at concentrations of 0 nM, 10 nM, and 100 nM) for 16 h.” left out, “debris.” for “debris. N, normoxia; H, hypoxia. **P < 0.01 versus hypoxia (H) DMSO (D)-treated control. (C) HUVECs were treated with Compound 12, at the indicated concentrations, in the presence of VEGF (20 ng/mL) for 24 h in 1% serum-containing media.”

HIF-1α, sequence (Q16665 whole entry): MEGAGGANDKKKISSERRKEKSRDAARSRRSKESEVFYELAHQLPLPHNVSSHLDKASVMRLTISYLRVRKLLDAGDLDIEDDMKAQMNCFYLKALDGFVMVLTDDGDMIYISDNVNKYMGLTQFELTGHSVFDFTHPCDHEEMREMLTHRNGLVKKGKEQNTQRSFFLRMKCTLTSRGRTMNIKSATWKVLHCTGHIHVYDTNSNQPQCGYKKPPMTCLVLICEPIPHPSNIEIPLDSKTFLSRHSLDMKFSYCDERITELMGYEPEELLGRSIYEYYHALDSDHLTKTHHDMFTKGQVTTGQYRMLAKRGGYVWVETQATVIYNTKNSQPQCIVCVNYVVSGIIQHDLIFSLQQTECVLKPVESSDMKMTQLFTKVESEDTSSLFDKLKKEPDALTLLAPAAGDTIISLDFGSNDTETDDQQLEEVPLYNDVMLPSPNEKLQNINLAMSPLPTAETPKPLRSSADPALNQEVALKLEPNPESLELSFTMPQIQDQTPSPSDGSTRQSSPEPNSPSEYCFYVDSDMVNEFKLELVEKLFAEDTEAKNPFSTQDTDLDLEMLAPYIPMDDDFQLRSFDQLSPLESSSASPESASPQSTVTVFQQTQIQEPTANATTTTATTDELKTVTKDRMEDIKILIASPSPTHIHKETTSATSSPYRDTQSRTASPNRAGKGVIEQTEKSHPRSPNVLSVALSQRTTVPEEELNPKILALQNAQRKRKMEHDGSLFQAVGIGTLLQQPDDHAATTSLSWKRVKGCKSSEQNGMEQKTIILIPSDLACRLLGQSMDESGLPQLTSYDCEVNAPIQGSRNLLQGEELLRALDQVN

## COc1ccc(-c2cn(CC3(C)C=Cc4cc([N+](=O)[O-])ccc4O3)nn2)cc1 (stereo not shown) [Compound 12, 4-(4-methoxyphenyl)-1-((2-methyl-6-nitro-2H-chromen-2-yl)methyl)-1H-1,2,3-triazole]
[1]
  VEGF-induced endothelial migration: significantly inhibited
[2]
  VEGF-induced tube formation: significantly inhibited
[3]
  inhibition at 0.001 µM: ~30%
[4]
  hypoxia-induced VEGF secretion: significantly suppressed hypoxia-induced VEGF secretion, in a dose-dependent manner
